What is called IC50 is the concentration needed to halve the response being measured. As a reminder, the AC50 is the concentration giving half of the maximal activity seen. One may read the GI50 as the concentration that inhibits growth by half.

Assay [1] concerns the target T1, Tyrosine-protein phosphatase non-receptor type 7 (Homo sapiens, UniProt P35236).
T1 sequence (P35236 whole entry): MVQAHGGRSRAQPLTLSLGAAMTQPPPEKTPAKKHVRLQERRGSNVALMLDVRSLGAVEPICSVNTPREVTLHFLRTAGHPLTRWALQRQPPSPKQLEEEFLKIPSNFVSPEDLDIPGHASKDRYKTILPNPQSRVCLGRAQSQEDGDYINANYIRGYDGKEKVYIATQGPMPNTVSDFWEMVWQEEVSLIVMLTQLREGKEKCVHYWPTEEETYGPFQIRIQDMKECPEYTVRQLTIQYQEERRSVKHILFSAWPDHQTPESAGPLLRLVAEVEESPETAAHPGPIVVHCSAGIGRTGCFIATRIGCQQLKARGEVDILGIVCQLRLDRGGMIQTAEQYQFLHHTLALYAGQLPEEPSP
Put plainly: HePTP tyrosine phosphatase activity blockers – biochemical, absorbance, leukemia target, primary screen (AID 521). The format is functional.

A further assay deals with T2, NADPH oxidase 1 (Homo sapiens, UniProt Q9Y5S8).
T2 sequence (Q9Y5S8 whole entry): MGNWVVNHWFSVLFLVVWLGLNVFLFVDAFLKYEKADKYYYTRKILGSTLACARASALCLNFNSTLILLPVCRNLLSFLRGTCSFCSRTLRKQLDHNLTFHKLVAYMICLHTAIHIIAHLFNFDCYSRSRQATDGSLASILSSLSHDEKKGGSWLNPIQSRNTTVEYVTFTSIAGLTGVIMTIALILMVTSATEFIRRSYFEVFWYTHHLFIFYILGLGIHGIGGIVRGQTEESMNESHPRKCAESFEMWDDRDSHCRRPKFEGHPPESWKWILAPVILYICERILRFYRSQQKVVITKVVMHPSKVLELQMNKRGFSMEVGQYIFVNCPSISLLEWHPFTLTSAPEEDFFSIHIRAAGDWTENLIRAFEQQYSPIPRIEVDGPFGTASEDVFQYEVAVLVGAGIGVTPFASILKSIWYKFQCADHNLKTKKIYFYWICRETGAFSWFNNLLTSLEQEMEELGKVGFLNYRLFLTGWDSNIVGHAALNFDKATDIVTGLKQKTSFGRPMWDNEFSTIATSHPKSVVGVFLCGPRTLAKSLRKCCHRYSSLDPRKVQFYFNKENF
Put plainly: Late-stage luminescence-based cell-based dose response assay to identify inhibitors of NADPH oxidase 1 (NOX1): Synthesized analogs 3. The format is functional.

The next assay concerns the target 14-3-3 protein gamma (Homo sapiens, UniProt P61981). Put plainly: modulators of 14-3-3 gamma client binding – dose response (AID 711). It is filed as functional.
Assay [2] can be described thus: Potency on glucagon-like peptide 1 release, dose-response in NCI-H716 cell line, half maximal inhibitory concentration (AID 1117344). The format is functional, cell-based.
The nature of assay [3]: IC50 of insulin release inhibition, rat insulinoma INS-1E line, 5 mM glucose, cell-based (AID 1117331). It is filed as functional.
The nature of assay [4]: glucagon-like peptide-1 release potency in STC-1, concentration-response, half-maximal inhibitory concentration in the STC-1 line (AID 1117345). The format is functional, cell-based.
Assay [5] is described as follows: HIV-1 Vif–A3G interaction blockers – biochemical, TR-FRET, GST-Vif 1-94, biotin-A3G peptide, dose response retest, primary screen (AID 1117319).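 Also: TR-FRET signal of purified GST-Vif binding a biotinylated A3G peptide; inhibitors lower the FRET signal by blocking Vif and A3G binding.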 The format is functional. (In general: Time-resolved FRET reads energy transfer from a long-lived donor to a nearby acceptor.)
For assay [6], the target named is T3, Rac GTPase-activating protein 1 (Homo sapiens, UniProt Q9H0H5).
T3 sequence (Q9H0H5 whole entry): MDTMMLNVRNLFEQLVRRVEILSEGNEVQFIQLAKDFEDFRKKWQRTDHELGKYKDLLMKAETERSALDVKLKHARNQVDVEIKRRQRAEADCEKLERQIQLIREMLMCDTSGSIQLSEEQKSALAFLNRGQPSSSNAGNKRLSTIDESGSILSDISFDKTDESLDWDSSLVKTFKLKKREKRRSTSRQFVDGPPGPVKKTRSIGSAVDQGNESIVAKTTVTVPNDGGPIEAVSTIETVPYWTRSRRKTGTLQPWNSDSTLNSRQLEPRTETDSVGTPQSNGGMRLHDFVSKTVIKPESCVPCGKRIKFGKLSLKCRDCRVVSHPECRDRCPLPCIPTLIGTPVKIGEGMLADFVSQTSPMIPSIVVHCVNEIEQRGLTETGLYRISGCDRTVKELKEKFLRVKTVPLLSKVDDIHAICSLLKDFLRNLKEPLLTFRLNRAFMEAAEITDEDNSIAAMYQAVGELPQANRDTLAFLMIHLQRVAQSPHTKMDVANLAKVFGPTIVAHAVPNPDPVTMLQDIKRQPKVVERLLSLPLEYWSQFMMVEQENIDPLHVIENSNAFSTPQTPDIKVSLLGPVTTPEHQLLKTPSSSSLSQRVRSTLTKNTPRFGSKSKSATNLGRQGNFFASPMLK
Put plainly: blockers of MgcRacGAP-driven Rac1 GTP hydrolysis – biochemical, ADP Hunter fluorescence, primary and confirmatory, confirmation (AID 624330). The format is functional.

The target in the next assay is T4, Leucine aminopeptidase (Plasmodium falciparum 3D7, UniProt Q8IL11).
T4 sequence (Q8IL11 whole entry): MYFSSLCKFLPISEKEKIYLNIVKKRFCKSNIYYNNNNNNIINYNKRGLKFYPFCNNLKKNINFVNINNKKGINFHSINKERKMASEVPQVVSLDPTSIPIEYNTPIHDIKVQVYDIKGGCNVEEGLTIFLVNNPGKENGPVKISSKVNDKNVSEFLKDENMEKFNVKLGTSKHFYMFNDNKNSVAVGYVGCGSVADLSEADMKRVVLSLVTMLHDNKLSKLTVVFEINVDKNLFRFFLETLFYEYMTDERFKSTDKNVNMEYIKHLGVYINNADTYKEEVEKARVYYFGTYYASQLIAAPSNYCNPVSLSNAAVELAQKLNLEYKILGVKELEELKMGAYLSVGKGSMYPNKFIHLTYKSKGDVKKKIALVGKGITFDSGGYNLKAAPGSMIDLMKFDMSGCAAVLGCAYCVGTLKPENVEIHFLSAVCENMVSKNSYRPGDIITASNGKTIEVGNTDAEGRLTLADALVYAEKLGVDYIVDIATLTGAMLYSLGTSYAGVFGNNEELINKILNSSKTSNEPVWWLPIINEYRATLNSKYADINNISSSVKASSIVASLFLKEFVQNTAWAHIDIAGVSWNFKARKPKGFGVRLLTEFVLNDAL
Put plainly: P. falciparum M17LAP inhibitors, primary screen, biochemical, fluorogenic H-Leu-NHMec substrate, 1536-well (AID 1619). It is filed as functional.

The subject of a further assay is INS1. Put plainly: INS-1E survival protection against cytokine death – cell-based, luminescence, retest, dose response (AID 449756).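 Also: cell death triggered by IL-1 beta plus TNF-alpha plus IFN-gamma mixture; protective hits raise ATP signal compared with cytokine alone wells.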 It is filed as functional. The settings on record: Rattus norvegicus.
A short description of assay [7]: rise of 4N DNA cells, HeLa – IC50, dose response (AID 1117351). The format is functional, cell-based.
A further assay has as its system P388/ADR. Put plainly: cells. The settings on record: Mus musculus. It is filed as functional.
Assay [8] addresses T5, Sentrin-specific protease 8 (Homo sapiens, UniProt Q96LD8).
T5 sequence (Q96LD8 whole entry): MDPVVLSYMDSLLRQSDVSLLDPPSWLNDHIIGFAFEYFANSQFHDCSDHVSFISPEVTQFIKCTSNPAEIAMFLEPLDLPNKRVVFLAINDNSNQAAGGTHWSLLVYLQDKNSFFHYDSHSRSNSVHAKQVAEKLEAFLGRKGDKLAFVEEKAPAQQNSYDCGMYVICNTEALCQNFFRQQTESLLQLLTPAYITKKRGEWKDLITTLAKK
It is filed as functional.

Assay [9] has as its target T6, DNA repair protein RAD52 homolog (Homo sapiens, UniProt P43351).
T6 sequence (P43351 whole entry): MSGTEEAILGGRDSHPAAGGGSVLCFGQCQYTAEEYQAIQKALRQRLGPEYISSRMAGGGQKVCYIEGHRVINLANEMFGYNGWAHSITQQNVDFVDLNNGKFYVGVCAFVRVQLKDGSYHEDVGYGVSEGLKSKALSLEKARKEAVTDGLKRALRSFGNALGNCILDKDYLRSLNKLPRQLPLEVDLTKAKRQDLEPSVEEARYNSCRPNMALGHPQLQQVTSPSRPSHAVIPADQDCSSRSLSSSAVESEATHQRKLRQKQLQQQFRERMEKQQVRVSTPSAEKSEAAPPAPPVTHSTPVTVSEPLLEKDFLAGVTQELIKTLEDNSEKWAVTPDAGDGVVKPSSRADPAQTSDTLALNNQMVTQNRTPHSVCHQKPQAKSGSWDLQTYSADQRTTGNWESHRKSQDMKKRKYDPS
It is filed as functional, biochemical.

In another assay the test system is SN12K1. Put plainly: cells. It is filed as functional. The settings on record: Homo sapiens.
For assay [10], the target named is T5, Sentrin-specific protease 8. The format is functional. The source holds these as a separate data set.
Another assay relates to P388. Put plainly: cells. The format is functional. The settings on record: Mus musculus.
Assay [11] is described as follows: rise of 2N DNA cells, HeLa – IC50, dose response (AID 1117349). The format is functional, cell-based.

“And” between values parts separate entries of the source, which are not always exact repeats. Identical values can stand only once. The source made the active and inactive calls.

Chain of 14-3-3 protein gamma (P61981 whole entry): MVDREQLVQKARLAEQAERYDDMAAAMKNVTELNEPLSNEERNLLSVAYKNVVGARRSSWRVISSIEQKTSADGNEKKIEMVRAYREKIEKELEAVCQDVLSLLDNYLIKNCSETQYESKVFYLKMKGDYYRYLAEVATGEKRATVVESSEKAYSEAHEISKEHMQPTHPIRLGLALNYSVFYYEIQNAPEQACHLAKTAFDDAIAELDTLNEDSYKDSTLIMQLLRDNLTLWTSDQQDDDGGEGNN

In the case of `Cc1cc(C)cc(OCCCCCNCCO)c1`, the IC50 in assay [1] is > 100 µM (not active).
With `CN1c2ccccc2Sc2cc(C(=O)c3ccc(N=[N+]=[N-])cc3)ccc21`, the IC50 at NADPH oxidase 1 is given as > 20 µM (not active).
Regarding `CCOC(=O)N1CCC(NC(=O)CSCc2nc(-c3ccc(OC)c(OC)c3)oc2C)CC1`, the 50% inhibitory concentration (IC50) at 14-3-3 protein gamma is > 50 µM (not active).
In the case of `O=C(CBr)Nc1ccc(Cl)cc1C(=O)c1ccccc1F`, the IC50 in assay [2] is > 40 µM (inactive); in assay [3], > 33.3 µM (inactive); in assay [4], > 40 µM (inactive).
Turning to `COc1ccc2c(c1OC)C(=O)OC2CC(=O)c1ccc(O)c(O)c1` (stereo not drawn), the IC50 in [5] is > 100 µM (active); in [6], 56.1 µM (active); at Leucine aminopeptidase it was 35.2 µM (active).
Regarding `COc1ccc2cc3[n+](cc2c1OC)CCc1cc2c(cc1-3)OCO2` [BERBERINE CHLORIDE], the AC50 in the assay on INS1 was 3.25 µM (active); in [9], 2.38 µM (active) and 5.69 µM (active). Moreover, the IC50 in assay [7] was > 10 µM (inactive); in [8], 7.66 µM (active); in [10] it was > 100 µM (inactive); in assay [11], > 10 µM (inactive). Moreover, the GI50 with P388/ADR is 102 µM (inactive); in the assay with SN12K1, 3.93 µM (inactive); in the assay with P388, 1.87 µM (inactive).
